# Test results as given in patent US20080318861A1, “Mucosal Delivery of Stabilized Formulations of Exendin” (NASTECH PHARMACEUTICAL COMPANY INC., priority 2005, published 2008).
# What was measured:
# [1] = Physical stability by clarity (absorbance at 630 nm) on storage at 5° C.; conditions: stored at 5° C. (refrigerated) for at least two weeks
# Protocol: In vitro testing of exenatide formulations included a preservatives screen. Physical stability after storage at 5° C. was measured for all formulations tested in vitro. Exenatide formulations were placed in 1 cc glass vials and closed with trifoil lined caps and stored at 5° C. for at least two weeks. Physical stability was monitored by measuring clarity. Clarity of a formulation was determined by measuring absorbance at 630 nm, using the μQuant optical density plate reader for each formulation at days 0, 7, and 14. A 200 μL volume from each vial was placed in a 96-well plate and read against a background of water.
# Varying concentrations of sodium benzoate (NaBz) and benzalkonium chloride (BAK), were screened for their effect on physical stability of the three formulations used in in vivo studies. Sodium benzoate was added at 1.0, 2.5, and 5.0 mg/mL, while BAK was tested at 0.2, 1.0, 2.0, and 4.0 mg/mL. To prepare the samples, varying amounts of stock solutions of the two preservatives were added to the three prepared formulations dosed in the PK study. […] The resulting formulations were stored at 5° C. for 5.5 weeks. Physical stability was monitored by measuring the absorbance of the solution at 630 nm.
# Sodium benzoate was added at concentrations of 1.0 to 5.0 mg/mL, while BAK was tested at 0.05, 0.075, and 0.1 mg/mL. To prepare the samples, varying amounts of stock solutions of the two preservatives were added to the formulations prepared in the PK study and the pH was adjusted to 4.5 with HCl as necessary. The resulting formulations were stored at 5° C. for 4 weeks. Physical stability was monitored by measuring the absorbance of the solution at […].
# The second formulation lacked any buffer to test the effect of the buffer itself on physical stability.
# [2] = system: epithelial tissue barrier (EpiAirway Tissue Model); test: In vitro permeation of exenatide across the cellular barrier (EIA analysis); conditions: for exenatide permeation (in words): compared with AKL-225-126-2 or control without enhancers
# Text: Initial studies focused on optimizing the concentrations of Me-β-CD, DDPC, EDTA, and gelatin to enhance exenatide permeation across an epithelial tissue layer.
# A second round of studies, series B, systematically screened several excipients for their potential to enhance exenatide permeation to a greater degree than the Me-β-CD, DDPC, EDTA, and gelatin combinations. […] Initially, each excipient (except for those classified as “generally regarded as safe” (GRAS) by the FDA, recombinant gelatins, and PN159), was tested at two concentrations or in combination with Me-β-CD, DDPC, or EDTA. As with series A formulations, each formulation was evaluated for exenatide permeation, ability to reduce TER while not adversely affecting cell viability, and formulation physical stability.
# [3] = system: normal, human-derived tracheal/bronchial epithelial cells (EpiAirway Tissue Model); test: MTT cell viability assay; assay type: cell-based; conditions: for toxicity / cell viability in excipient screening (in words): cell viability as measured by LDH and MTT, exenatide formulation containing the named excipient
# Text: The extraction plate was covered and scaled to reduce evaporation of extractant.
# [4] = system: normal, human-derived tracheal/bronchial epithelial cells (EpiAirway Tissue Model); test: Transepithelial electrical resistance (TER) in the in vitro nasal epithelial model; assay type: cell-based; conditions: 60 min exposure
# Text: A cell line from MatTek Corp. (Ashland, Mass.) was used as the source of normal, human-derived tracheal/bronchial epithelial cells (EpiAirway™ Tissue Model). […] The cells were provided as inserts grown to confluence on Millipore Milicell-CM filters comprised of transparent hydrophilic Teflon (PTFE). […] TER measurements were accomplished using the Endohm-12 Tissue Resistance Measurement Chamber connected to the EVOM Epithelial Voltohmmeter (World Precision Instruments, Sarasota, Fla.) with the electrode leads. The electrodes and a tissue culture blank insert were equilibrated for at least twenty (20) minutes in phosphate buffered solution with the power off prior to checking calibration. The background resistance was measured with 1.5 mL media in the Endohm tissue chamber and 300 μL media in a blank Millicell-CM insert. […] The background resistance of the blank insert was 5-12 ohms.
# TER was measured before and after the sixty (60) minute incubation. […] After the 60 minute incubation with test samples, 200 μL of fresh media was gently added to the apical surface of each test sample insert and final TER was measured for each insert. […] Resistance is expressed as follows: (resistance measured−blank)×0.6 cm^2.
# [5] = system: normal, human-derived tracheal/bronchial epithelial cells (EpiAirway Tissue Model); test: Lactate dehydrogenase (LDH) cytotoxicity assay; assay type: cell-based
# Protocol: The amount of cell death was assayed by measuring the loss of lactate dehydrogenase (LDH) from the cells using a CytoTox 96 Cytoxicity Assay Kit (Promega Corp., Madison, Wis.). Fresh, cell-free culture medium was used as a blank. 50 μl harvested media (stored at 4° C.) was loaded in a 96-well plate. Substrate Solution (50 μl) was added to each well and the plates were incubated for thirty (30) minutes at ambient temperature in the dark. Following incubation, 50 μl of Stop Solution was added to each well and the reaction was monitored at A490 using an optical density plate reader. Media alone applied to the apical side served as a negative control while triton X served as the positive control for the LDH assay.
Compound,physical stability (clarity) [1],exenatide permeation (in words) [2],toxicity / cell viability in excipient screening (in words) [3],other results
OC[C@H]1O[C@@H]2O[C@H]3[C@H](O)[C@@H](O)[C@@H](O[C@H]4[C@H](O)[C@@H](O)[C@@H](O[C@H]5[C@H](O)[C@@H](O)[C@@H](O[C@H]6[C@H](O)[C@@H](O)[C@@H](O[C@H]7[C@H](O)[C@@H](O)[C@@H](O[C@H]8[C@H](O)[C@@H](O)[C@@H](O[C@H]1[C@H](O)[C@H]2O)O[C@@H]8CO)O[C@@H]7CO)O[C@@H]6CO)O[C@@H]5CO)O[C@@H]4CO)O[C@@H]3CO [β-cyclodextrin],became turbid at refrigerated conditions,–,–,–
hydroxypropyl-β-cyclodextrin [H-β-CD],–,did not increase permeation significantly,–,–
"CCCCCCCCCCCCCCCC(=O)OC(CC(=O)[O-])C[N+](C)(C)C (racemic) [Palmitoyl-DL-carnitine, palmitoyl-DL-carnitine]",physically instable without Me-β-CD,–,toxic at high concentrations,–
CCCCCCCC(=O)[O-].[Na+] [sodium caprylate],physical instability in the absence of Me-β-CD,failed to enhance exenatide permeation to any extent alone or with permeation enhancers,toxic at 20 mM with Me-β-CD and EDTA,–
CC(O)CO (stereo not shown) [propylene glycol],–,failed to enhance permeation at all,–,–
Tween-80,–,failed to enhance exenatide permeation to the same extent as formulation AKL-225-126-2,–,–
CCCCCCCCC(=O)OC[C@H](COP(=O)([O-])OCC[N+](C)(C)C)OC(=O)CCCCCCCC [dinonanoyl glycero phosphatidylcholine],becoming turbid in less than two weeks at refrigerated conditions,–,–,–
CCO [ethanol],–,did not enhance exenatide permeation,–,–
"CCCCCCCCO[C@@H]1O[C@H](CO)[C@H](O)[C@H](O)[C@H]1O [galactopyranoside, n-Octyl-β-D-galactopyranoside]",–,–,toxic at 10 mg/mL,–
triton X,–,–,–,TER reduction (in words) [4]: lowest possible TER; cytotoxicity as measured by % LDH (in words) [5]: significant toxicity; cytotoxicity as measured by % MTT (in words) [3]: significant toxicity
dimethyl-β-cyclodextrin [DMe-β-CD],–,–,more toxic to the cells than Me-β-CD,fold increase in exenatide permeation over AKL-225-126-2 ([2]; full dose volume (100 µL)): 1.5 fold
CCCCCCCCCC(=O)[O-].[Na+] [sodium caprate],physical instability in the absence of Me-β-CD,–,low cell viability at 50 mM alone,–
O=C(O)CN(CCN(CC(=O)O)CC(=O)O)CC(=O)O [EDTA],–,–,cell viability began to decrease,–
CCCCCCCC/C=C\CCCCCCCC(=O)O [oleic acid],–,–,lowered cell viability,–
"C[C@H](CCC(=O)NCC(=O)[O-])[C@H]1CC[C@H]2[C@@H]3[C@H](O)C[C@@H]4C[C@H](O)CC[C@]4(C)[C@H]3C[C@H](O)[C@]12C.[Na+] [Sodium glycocholate, sodium glycocholate]",physically instable at high concentrations,–,–,–
